{"source": "ChEMBL document CHEMBL1201862", "about": "“PubChem BioAssay data set” (2004)", "key": {"[1]": {"target": "Epstein-Barr nuclear antigen 1 (Epstein-Barr virus (strain B95-8) (HHV-4) (Human herpesvirus 4), UniProt P03211)", "sequence (P03211 whole entry)": "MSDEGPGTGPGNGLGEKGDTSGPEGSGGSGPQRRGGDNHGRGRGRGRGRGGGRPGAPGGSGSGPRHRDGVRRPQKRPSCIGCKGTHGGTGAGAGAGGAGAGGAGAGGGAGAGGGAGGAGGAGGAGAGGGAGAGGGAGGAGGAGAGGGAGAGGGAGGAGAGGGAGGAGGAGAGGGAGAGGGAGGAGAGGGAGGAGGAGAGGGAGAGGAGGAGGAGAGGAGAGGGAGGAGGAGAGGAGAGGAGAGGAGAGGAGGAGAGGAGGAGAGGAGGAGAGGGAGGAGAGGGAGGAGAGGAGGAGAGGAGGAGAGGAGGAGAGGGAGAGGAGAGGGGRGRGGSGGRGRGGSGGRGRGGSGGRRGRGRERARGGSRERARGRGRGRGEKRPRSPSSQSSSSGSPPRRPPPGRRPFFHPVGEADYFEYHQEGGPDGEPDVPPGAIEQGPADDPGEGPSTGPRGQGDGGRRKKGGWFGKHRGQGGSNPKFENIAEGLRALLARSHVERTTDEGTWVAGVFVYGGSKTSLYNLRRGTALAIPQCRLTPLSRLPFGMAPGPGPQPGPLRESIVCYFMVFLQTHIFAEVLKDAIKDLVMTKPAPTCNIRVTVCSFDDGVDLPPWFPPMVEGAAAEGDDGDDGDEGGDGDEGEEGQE", "experiment": "EBNA-1 inhibitors, dose response, biochemical, fluorescence polarization, 1536-well (AID 2381);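 further: fluorescence polarization of a Cy5 DNA probe bound by EBNA-1 protein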", "parameters": "species or system human gammaherpesvirus 4"}, "[2]": {"target": "Lytic switch protein BZLF1 (Epstein-Barr virus (strain B95-8) (HHV-4) (Human herpesvirus 4), UniProt P03206)", "sequence (P03206 whole entry)": "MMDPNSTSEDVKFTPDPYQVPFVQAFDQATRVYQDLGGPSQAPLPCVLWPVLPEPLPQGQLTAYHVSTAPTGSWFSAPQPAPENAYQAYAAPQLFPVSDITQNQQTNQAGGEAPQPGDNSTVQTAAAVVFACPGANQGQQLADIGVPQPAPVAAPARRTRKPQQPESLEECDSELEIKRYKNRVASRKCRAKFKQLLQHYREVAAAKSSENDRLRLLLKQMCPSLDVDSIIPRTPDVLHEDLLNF", "experiment": "EBV ZTA inhibitors, dose response, counter-screen for EBNA-1 inhibitor project, biochemical, fluorescence polarization, Epstein-Barr virus, 1536-well (AID 2377);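 further: fluorescence polarization of Cy5-labelled ZRE DNA probe bound by purified Zta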", "parameters": "species or system human gammaherpesvirus 4"}, "[3]": {"experiment": "insulin promoter down-regulators in MIN6 cells, imaging, high-content screening, mouse beta cells (AID 1628)", "type": "functional"}, "[4]": {"experiment": "Luminescence-based dose response cell-based high throughput screening assay for cytotoxic compounds using the IEC-6 intestinal epithelial cell line. [Related pubchem assays: 1858 (Summary AID.), 1825 (Counterscreen.), 1907 (Confirmation screen.)]", "type": "functional"}, "[5]": {"experiment": "cytotoxicity in MIN6 insulinoma cells, dose response, cytotoxicity control, cell-based, mouse insulinoma (AID 2122);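 further: confirmatory high-throughput counterscreen run to flag cytotoxic compounds; mouse MIN-6 beta cells carrying an insulin promoter eGFP reporter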", "type": "functional"}, "[6]": {"target": "DNA repair and recombination protein RAD54-like (Homo sapiens, UniProt Q92698)", "sequence (Q92698 whole entry)": "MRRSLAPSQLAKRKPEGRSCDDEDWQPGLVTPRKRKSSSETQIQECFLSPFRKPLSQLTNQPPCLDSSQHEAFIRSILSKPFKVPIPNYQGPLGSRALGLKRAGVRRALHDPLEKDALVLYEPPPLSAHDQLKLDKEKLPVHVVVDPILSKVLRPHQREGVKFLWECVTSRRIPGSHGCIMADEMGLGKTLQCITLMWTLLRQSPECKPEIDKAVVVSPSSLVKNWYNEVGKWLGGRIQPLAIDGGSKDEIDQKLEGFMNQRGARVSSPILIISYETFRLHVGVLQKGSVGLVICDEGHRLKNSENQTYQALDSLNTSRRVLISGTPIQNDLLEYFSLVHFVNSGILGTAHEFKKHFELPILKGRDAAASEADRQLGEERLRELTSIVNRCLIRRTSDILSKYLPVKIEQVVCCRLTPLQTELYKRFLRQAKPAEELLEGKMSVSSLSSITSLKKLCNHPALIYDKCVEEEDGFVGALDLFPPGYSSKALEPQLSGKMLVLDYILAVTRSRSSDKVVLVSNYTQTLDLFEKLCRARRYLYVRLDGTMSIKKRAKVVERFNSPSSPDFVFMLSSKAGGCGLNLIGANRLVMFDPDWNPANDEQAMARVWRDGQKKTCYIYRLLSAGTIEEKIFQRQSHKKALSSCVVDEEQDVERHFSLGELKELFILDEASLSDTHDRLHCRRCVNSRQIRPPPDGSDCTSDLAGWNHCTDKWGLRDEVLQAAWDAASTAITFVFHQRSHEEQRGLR", "experiment": "inhibitors of human RAD54 branch migration, confirmation, biochemical, fluorescence, cherry-picked samples, dose series (AID 651657)", "type": "functional"}, "[7]": {"experiment": "cytotoxicity in HPDE-C7 cells, cell-based, fluorescence, HTS (AID 430)", "type": "functional", "conditions": "Homo sapiens"}, "[8]": {"experiment": "cytotoxicity in KRAS-transformed pancreatic duct cells, primary screen, cell-based, fluorescence, HTS (AID 431)", "type": "functional", "conditions": "Homo sapiens"}, "[9]": {"target": "Induced myeloid leukemia cell differentiation protein Mcl-1 (Homo sapiens, UniProt Q07820)", "sequence (Q07820 whole entry)": "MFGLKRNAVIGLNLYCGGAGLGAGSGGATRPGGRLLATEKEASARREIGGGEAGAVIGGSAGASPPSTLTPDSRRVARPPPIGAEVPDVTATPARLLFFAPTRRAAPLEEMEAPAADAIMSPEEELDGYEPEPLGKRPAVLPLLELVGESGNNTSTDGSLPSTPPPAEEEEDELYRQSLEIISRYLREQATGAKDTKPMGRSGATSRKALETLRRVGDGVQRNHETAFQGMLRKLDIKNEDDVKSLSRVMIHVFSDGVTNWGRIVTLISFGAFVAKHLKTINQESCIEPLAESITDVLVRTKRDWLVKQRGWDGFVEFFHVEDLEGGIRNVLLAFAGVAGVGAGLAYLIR", "experiment": "MCL1-BIM BH3 interaction inhibitors, dose response, biochemical, fluorescence polarization, BIM-BH3 peptide, 1536-well (AID 2217)"}, "[10]": {"target": "DNA dC->dU-editing enzyme APOBEC-3A (Homo sapiens, UniProt P31941)", "sequence (P31941 whole entry)": "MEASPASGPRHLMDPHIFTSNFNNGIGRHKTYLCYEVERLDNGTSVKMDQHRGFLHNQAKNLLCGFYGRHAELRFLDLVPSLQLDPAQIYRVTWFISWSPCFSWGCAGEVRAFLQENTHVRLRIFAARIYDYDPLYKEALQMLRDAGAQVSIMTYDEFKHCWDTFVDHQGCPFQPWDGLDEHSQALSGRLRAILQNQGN", "experiment": "APOBEC3A DNA deaminase inhibitors, dose response, biochemical (AID 504722)", "type": "functional"}, "[11]": {"target": "DNA dC->dU-editing enzyme APOBEC-3G (Homo sapiens, UniProt Q9HC16)", "sequence (Q9HC16 whole entry)": "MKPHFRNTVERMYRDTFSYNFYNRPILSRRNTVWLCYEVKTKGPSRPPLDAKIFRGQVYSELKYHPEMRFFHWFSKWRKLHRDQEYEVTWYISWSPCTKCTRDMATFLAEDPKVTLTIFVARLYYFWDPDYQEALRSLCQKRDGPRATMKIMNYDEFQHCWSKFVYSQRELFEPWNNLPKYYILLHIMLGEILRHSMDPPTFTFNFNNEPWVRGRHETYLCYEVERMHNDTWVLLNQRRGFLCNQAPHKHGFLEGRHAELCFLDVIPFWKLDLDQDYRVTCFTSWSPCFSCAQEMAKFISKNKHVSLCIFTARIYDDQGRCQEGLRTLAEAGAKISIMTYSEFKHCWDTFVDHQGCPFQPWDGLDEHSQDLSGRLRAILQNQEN", "experiment": "Dose Response confirmation of small molecule APOBEC3G DNA Deaminase Inhibitors via a fluorescence-based single-stranded DNA deaminase assay. [Related pubchem assays (depositor defined):AID493012, AID493028]", "type": "functional"}, "[12]": {"target": "Bcl-2-like protein 1 (Homo sapiens, UniProt Q07817)", "sequence (Q07817 whole entry)": "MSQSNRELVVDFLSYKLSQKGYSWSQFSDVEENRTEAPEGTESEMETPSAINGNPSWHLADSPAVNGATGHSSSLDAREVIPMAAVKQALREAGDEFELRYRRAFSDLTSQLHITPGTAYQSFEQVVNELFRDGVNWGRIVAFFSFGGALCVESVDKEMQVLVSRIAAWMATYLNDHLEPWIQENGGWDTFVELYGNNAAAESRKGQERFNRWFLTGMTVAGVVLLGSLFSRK", "experiment": "BCL-XL inhibitors, dose response, selectivity assay for MCL1 inhibitor project, biochemical, fluorescence polarization, 1536-well (AID 2218)"}, "[13]": {"target": "5-hydroxytryptamine receptor 1A (Homo sapiens, UniProt P08908)", "sequence (P08908 whole entry)": "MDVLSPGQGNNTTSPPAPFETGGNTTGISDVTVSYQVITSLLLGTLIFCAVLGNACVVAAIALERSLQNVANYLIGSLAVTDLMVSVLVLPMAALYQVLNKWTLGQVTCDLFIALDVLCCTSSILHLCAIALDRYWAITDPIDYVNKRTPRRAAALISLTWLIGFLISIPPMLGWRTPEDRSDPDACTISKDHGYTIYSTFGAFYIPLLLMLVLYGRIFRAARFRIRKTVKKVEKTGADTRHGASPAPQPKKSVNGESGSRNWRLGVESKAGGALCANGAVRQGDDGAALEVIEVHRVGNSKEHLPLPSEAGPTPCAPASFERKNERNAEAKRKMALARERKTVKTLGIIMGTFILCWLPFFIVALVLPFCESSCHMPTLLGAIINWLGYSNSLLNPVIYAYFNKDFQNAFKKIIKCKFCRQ", "type": "functional"}, "[14]": {"target": "T1, Mannose-6-phosphate isomerase (Homo sapiens, UniProt P34949)", "T1 sequence (P34949 whole entry)": "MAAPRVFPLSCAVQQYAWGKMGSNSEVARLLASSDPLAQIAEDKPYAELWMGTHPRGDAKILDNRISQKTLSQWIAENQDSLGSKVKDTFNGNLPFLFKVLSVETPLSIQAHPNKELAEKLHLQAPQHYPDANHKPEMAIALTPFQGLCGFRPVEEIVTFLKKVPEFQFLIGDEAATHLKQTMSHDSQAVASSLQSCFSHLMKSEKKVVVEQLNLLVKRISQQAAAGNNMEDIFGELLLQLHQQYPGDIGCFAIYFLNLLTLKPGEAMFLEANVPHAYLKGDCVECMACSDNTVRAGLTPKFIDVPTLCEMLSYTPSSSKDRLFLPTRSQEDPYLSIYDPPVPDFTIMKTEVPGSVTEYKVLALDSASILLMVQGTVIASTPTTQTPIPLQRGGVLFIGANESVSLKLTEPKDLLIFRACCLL", "experiment": "inhibitors of human PMI, primary screen, biochemical, fluorescence intensity, coupled assay (AID 1209)"}, "[15]": {"target": "T2, RNA-binding protein pos-1 (Caenorhabditis elegans, UniProt G5EF15)", "T2 sequence (G5EF15 whole entry)": "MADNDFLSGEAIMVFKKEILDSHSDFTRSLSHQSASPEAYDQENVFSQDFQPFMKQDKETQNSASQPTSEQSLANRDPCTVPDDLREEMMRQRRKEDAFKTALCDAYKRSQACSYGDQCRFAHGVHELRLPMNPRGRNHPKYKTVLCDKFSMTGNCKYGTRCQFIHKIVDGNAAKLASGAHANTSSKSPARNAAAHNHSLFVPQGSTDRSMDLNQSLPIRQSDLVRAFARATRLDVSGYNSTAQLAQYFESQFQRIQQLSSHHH", "experiment": "inhibitors of POS-1/mex-3 RNA binding, dose response, biochemical, fluorescence polarization (AID 1964);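 further: purified POS-1 fused to maltose binding protein made in E. coli; potency of compounds blocking POS-1 binding to fluorescent RNA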"}, "[16]": {"target": "Large T antigen (Simian virus 40, UniProt P03070)", "sequence (P03070 whole entry)": "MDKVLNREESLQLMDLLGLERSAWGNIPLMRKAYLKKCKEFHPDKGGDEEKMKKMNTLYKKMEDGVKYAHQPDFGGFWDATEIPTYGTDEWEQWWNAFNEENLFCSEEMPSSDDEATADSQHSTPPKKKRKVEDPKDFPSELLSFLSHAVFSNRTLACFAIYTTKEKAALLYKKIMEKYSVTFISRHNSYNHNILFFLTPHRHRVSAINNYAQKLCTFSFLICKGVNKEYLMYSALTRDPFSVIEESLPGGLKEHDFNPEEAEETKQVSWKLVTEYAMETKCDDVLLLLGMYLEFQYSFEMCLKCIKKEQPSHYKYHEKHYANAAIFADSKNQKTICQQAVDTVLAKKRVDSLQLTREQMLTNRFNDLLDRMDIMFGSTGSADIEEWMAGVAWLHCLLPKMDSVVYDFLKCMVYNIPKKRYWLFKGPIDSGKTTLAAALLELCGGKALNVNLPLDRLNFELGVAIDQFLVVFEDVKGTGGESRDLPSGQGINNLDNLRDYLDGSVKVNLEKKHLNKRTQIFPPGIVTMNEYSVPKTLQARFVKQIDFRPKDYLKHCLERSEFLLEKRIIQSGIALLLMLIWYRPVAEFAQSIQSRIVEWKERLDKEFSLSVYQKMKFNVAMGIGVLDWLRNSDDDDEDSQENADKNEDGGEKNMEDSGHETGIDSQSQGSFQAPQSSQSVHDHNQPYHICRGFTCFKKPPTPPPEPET", "type": "functional, Betapolyomavirus macacae"}, "[17]": {"target": "T1, Mannose-6-phosphate isomerase", "experiment": "human PMI inhibitors, high substrate, primary screen, biochemical, fluorescence intensity, high mannose 6-phosphate (AID 1220)"}, "[18]": {"target": "T3, Protein RecA (Mycobacterium tuberculosis, UniProt P9WHJ3)", "T3 sequence (P9WHJ3 whole entry)": "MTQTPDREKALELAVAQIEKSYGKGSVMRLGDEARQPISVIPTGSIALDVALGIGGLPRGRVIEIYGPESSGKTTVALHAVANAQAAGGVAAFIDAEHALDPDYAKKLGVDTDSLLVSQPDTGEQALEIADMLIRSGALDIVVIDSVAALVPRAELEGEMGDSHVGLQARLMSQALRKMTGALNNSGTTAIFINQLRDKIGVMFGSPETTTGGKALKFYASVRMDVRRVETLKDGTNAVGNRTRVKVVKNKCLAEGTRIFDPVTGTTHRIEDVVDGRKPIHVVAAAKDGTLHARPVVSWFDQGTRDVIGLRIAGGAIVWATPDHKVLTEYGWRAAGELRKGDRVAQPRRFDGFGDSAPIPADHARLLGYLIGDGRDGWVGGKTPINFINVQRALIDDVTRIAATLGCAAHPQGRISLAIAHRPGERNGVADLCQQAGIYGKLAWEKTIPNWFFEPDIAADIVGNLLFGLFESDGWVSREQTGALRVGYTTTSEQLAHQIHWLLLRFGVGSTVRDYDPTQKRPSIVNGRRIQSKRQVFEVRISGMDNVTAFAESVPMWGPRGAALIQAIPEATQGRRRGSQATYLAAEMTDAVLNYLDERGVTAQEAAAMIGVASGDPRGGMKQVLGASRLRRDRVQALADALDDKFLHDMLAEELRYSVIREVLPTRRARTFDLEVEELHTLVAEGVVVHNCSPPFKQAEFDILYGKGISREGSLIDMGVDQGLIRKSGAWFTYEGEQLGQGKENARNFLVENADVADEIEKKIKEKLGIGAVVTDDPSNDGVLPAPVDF", "experiment": "Fluorescence Cell-Free Homogeneous Dose Retest to Identify Inhibitors of RecA-Intein Splicing Activity. [Related pubchem assays (depositor defined):AID2097, AID2223, AID489010, AID492950]", "type": "functional"}, "[19]": {"target": "T4, Replicative DNA helicase DnaB (Mycobacterium tuberculosis, UniProt P9WMR3)", "T4 sequence (P9WMR3 whole entry)": "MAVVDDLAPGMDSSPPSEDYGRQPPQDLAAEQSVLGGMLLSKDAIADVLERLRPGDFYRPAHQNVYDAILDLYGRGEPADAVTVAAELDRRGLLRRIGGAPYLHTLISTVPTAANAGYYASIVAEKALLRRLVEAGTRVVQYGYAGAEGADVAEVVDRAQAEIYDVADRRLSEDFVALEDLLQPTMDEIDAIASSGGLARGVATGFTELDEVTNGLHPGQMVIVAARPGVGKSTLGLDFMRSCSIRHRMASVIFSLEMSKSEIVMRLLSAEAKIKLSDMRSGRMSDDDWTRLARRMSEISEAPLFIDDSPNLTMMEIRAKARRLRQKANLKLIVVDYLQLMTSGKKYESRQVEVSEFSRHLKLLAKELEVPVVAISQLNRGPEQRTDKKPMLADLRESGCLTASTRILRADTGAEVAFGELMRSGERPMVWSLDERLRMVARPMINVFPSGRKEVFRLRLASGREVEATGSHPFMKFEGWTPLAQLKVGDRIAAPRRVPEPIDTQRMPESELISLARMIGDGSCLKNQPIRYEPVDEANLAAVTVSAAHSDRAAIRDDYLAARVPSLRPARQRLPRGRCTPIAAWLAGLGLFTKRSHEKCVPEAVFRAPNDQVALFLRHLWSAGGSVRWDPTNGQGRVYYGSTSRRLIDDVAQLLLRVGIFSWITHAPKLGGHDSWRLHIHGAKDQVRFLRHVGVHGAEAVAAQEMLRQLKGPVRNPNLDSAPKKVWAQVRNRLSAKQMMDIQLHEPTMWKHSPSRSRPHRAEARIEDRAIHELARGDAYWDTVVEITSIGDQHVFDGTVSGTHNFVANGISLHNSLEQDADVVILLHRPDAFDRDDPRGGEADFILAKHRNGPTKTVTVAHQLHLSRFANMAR", "experiment": "DnaB intein splicing inhibitors, dose response, biochemical, cell-free fluorescence (AID 449749)", "type": "functional"}}, "note": "Activity calls are given as the source filed them.", "data": [{"smiles": "CC1CCCC(C)N1S(=O)(=O)c1ccc(NC(=O)CCn2cnc3ccccc3c2=O)cc1", "note": "(stereo not given)", "values": [{"measurement": "IC50", "setting": "[1]", "value": "16.4 µM (not active)"}, {"measurement": "IC50", "setting": "[2]", "value": "> 111 µM (not active)"}]}, {"smiles": "OC1=C2C(=Nc3cc4c(cc3C2c2ccc(F)cc2)OCO4)CO1", "note": "(stereo not given)", "values": [{"measurement": "IC50", "setting": "[3]", "value": "1.32 µM (active)"}, {"measurement": "IC50", "setting": "[4]", "value": "0.112 µM (active)"}, {"measurement": "IC50", "setting": "[5]", "value": "< 0.25 µM (active)"}]}, {"smiles": "c1ccc2c(c1)oc1c(Nc3ccc(CN4CCOCC4)cc3)ncnc12", "values": [{"measurement": "AC50", "setting": "[6]", "value": "65.5 µM (active)"}, {"measurement": "EC50", "setting": "[7]", "value": "12.8 µM (active)"}, {"measurement": "EC50", "setting": "[8]", "value": "15.2 µM (active)"}]}, {"smiles": "C=CCn1c(S)nnc1CSc1ccccc1[N+](=O)[O-]", "values": [{"measurement": "IC50", "setting": "[9]", "value": "29.6 µM (not active)"}, {"measurement": "IC50", "setting": "[10]", "value": "38.9 µM (active)"}, {"measurement": "IC50", "setting": "[11]", "value": "2.24 µM (active)"}, {"measurement": "IC50", "setting": "[12]", "value": "> 109 µM (not active)"}]}, {"smiles": "COc1ccc(CN2CCN(c3ccccc3F)CC2)c(OC)c1", "values": [{"measurement": "EC50", "setting": "[13]", "value": "> 50 µM (not active)"}]}, {"smiles": "Cc1ncc(CO)c(/C=N/NC(=O)c2cc(O)c(O)c(O)c2)c1O", "values": [{"measurement": "IC50", "setting": "[14]", "value": "4.5 µM (active)"}, {"measurement": "EC50", "setting": "[15]", "value": "71.2 µM (active)"}, {"measurement": "IC50", "setting": "[16]", "value": "3.72 µM (active)"}]}, {"smiles": "O=[N+]([O-])c1cccc(/N=C/C2=C(O)c3ccccc3CC2)c1", "values": [{"measurement": "IC50", "setting": "[14]", "value": "10.3 µM (active)"}, {"measurement": "IC50", "setting": "[17]", "value": "> 50 µM (not active)"}, {"measurement": "EC50", "setting": "[18]", "value": "10.6 µM (active)"}, {"measurement": "AC50", "setting": "[19]", "value": "> 380 µM (inactive)"}]}]}
